In patent US20110281883A1, “4-Phenyl-pyrane-3,5-diones, 4-Phenyl-thiopyrane-3,5-diones and Cyclohexanetriones and Their Use as Insecticides, Acaricides and/or Fungicides” (Bayer Cropscience AG, priority 2009, published 2011):

What was measured:
[1] = tested on: mustard beetle larvae (Phaedon cochleariae); experiment: Phaedon cochleariae test (PHAECO spray application); assay type: in vivo; conditions: 168 h, application rate 500 g/ha, sprayed Chinese cabbage (Brassica pekinesis) leaf-disks, after 7 days, read-out: mortality in % (good activity)
Protocol: Phaedon cochleariae—Test; (PHAECO Spray Application)
Solvent: 78.0 parts by weight of acetone • • 1.5 parts by weight of dimethylformamide
Emulsifier: 0.5 parts by weight of alkylaryl polyglycolether
To produce a suitable preparation of active compound, 1 part by weight of active compound is mixed with the stated amount of solvent and emulsifier, and the concentrate is diluted with emulsifier-containing water to the desired concentration.Chinese cabbage (Brassica pekinesis) leaf-disks are sprayed with a preparation of the active ingredient of the desired concentration. Once dry, the leaf disks are infested with mustard beetle larvae (Phaedon cochleariae). After 7 days mortality in % is determined. 100% means that all beetle larvae have been killed and 0% means that none of the beetle larvae have been killed.

[2] = tested on: two spotted spidermite (Tetranychus urticae), OP-resistant; experiment: Tetranychus urticae test; OP-resistant (TETRUR spray application); assay type: in vivo; conditions: in Phaseolus vulgaris, 144 h, read-out: mortality in % (good activity)
Protocol: Tetranychus urticae—Test; OP-Resistant (TETRUR Spray Application)
Solvent: 78.0 parts by weight acetone • 1.5 parts by weight dimethylformamide
Emulsifier: 0.5 parts by weight alkylarylpolyglcolether
To produce a suitable preparation of active compound, 1 part by weight of active compound is mixed with the stated amount of solvent and emulsifier, and the concentrate is diluted with emulsifier-containing water to the desired concentration.French beans (Phaseolus vulgaris) which are heavily infested with all stages of the two spotted spidermite (Tetranychus urticae), are sprayed with a preparation of the active ingredient at the desired concentration. After 6 days mortality in % is determined. 100% means that all spider mites have been killed and 0% means that none of the spider mites have been killed.

SMILES | melting point | mortality at 500 g/ha [1] | mortality at 100 g/ha [2]
CCc1ccc(-c2ccc(F)cc2)cc1C1=C(O)[C@@]2(C)CC[C@H](O2)C1=O | 165 to 167 °C |  | 
CCc1ccc(-c2ccc(Cl)cc2)cc1C1=C(O)C(C)(C)OC(C)(COC)C1=O (centres unmarked) | 123 to 124 °C |  | 
CCc1ccc(-c2ccc(Cl)cc2)cc1C1=C(O)C2CCCC(C1=O)C2=O (centres unmarked) | 79.5 °C |  | 
CCc1ccc(-c2ccc(Cl)cc2)cc1C1=C(O)C(C)(C)C(=O)C(C)(C)C1=O [Compound B-1] |  | > 80% | ≥ 80%
